Measurements reported in patent US9528143B2, “Tracer reagents that enhance reaction-product analysis” (Sigma-Aldrich Co. LLC, priority 1999, dated 2016).

Tests used:
[1] = system: restriction enzymes; test: Restriction digest of NdeI-cut pUC19 with and without dye, agarose gel; assay type: biochemical; details: crude dye, all enzymes tested with the exception of KpnI, FIG. 17
Experimental: The effectiveness of restriction enzymes in cutting target DNA when a dye is present in the reaction mixture was evaluated. A variety of restriction enzymes were assayed for the detrimental effect of adding Amaranth (No. 31, Table 2) to a restriction digest as assayed by agarose gel electrophoresis. NdeI-cut pUC19 plasmid was prepared. This linearized plasmid was then digested with one of several restriction enzymes which normally cut pUC19 at a polylinker site. Thus, each enzyme would be expected to yield a product of similar sizes (ranging from 212 to 263 bp). The restriction enzyme digests were performed in the presence, or absence, of Amaranth dye, and at various concentrations of the enzyme. Column 1 (the leftmost column) contains 100 bp molecular weight ladders. Columns 2-4 contains cleavage products from sequential 5-fold dilutions of the restriction enzymes in the presence of dye. Columns 5-7 are as columns 2-4 but without dye. Columns 2 and 5 contained the restriction enzyme at 1/10th the suppliers concentration (i.e. the enzyme was considered a 10× concentration). The buffers used for the digests were as recommended by the supplier. The enzymes used are listed along the right side of the gel. The relative susceptibility of the enzyme to the dyes' presence is reported next to the enzyme. The sizes of the small bands in the electrophoresis runs range from 212 to 263 bp. […]

[2] = biological target: T1, Taq DNA polymerase (Thermus aquaticus, UniProt P19821); test: PCR yield (TCA precipitation) versus dye concentration, purity and counterion; assay type: biochemical; details: for PCR toxicity by counterion: FIGS. 12A and 12B
T1 construct: purchased Sigma Chemical Co., St. Louis, Mo
T1 sequence (P19821 whole entry): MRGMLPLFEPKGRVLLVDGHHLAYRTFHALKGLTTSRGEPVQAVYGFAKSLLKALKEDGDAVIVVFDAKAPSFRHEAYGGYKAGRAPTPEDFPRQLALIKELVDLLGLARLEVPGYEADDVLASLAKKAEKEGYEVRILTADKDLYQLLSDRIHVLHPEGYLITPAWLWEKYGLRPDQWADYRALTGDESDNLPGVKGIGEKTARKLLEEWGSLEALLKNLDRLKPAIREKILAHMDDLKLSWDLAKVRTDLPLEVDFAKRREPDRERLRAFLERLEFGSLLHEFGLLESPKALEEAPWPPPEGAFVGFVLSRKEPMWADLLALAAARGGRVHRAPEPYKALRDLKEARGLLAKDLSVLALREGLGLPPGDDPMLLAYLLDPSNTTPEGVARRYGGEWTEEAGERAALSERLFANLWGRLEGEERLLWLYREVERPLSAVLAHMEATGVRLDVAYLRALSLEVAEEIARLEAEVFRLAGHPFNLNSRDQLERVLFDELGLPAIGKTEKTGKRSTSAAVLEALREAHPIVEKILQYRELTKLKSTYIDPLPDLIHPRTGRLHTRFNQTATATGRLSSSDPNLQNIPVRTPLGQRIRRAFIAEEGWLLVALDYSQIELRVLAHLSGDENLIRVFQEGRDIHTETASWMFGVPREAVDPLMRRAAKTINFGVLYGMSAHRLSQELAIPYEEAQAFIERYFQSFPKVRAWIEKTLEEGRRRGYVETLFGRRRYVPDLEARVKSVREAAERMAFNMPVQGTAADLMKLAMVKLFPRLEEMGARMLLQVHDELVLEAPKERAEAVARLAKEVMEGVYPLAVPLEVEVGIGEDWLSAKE
Experimental: The dyes that survived these preceding tests were included in a PCR toxicity study. The dyes were added to PCR reactions at concentrations considered adequate for product performance. Enough of a 2× PCR master mix consisting of Taq DNA polymerase, 0.1 u/μl (Sigma Chemical Co., St. Louis, Mo.), PCR buffer (2×) (Sigma), dNTP's (200 μM each) (Sigma), α^32PdCTP (Amersham USA, Piscataway, N.J.), target DNA (lambda, 2 ng/μl) (Sigma) and primers (Perkin-Elmer 500 bp control, 2 μM) (Perkin-Elmer, Norwalk, Conn.) was prepared to accommodate all 11 remaining dyes plus three no dye controls. Ten μl of the 2× master mix was dispensed into reaction tubes followed by addition of 10 μl of aqueous darkly colored dye solutions or water (controls). The PCR cycling protocol was 20 cycles of 94/55/72° C. at one minute each. 20 μl of quench solution ([…] calf thymus DNA, 20 mM EDTA) was added followed by precipitation with 40 μl 40% trichloroacetic acid (TCA)/4% sodium pyrophosphate (NaPPi). The reactions were filtered on glass fiber filters, washed with 5% TCA/2% NaPPi and counted by scintillation methods. This quench/precipitation procedure will henceforth be referred to as “TCA precipitation”. […] The dyes that inhibited PCR were dropped from consideration (FIG. 6, PCR Tox, Table 2, those marked under “PCR”). […] Per cycle yield was calculated assuming the overall yield was the per cycle yield raised to the 20th power (FIG. 7). In FIG. 7, T1, T2, and T3 represent Taq controls (no dye) as in block and precipitation, numerals are dye number. Per cycle yield is calculated assuming […] where y is the 20 cycle yield (measured) and y1 is the per cycle yield. Table 3 summarizes the results as graphically depicted in FIG. 7 for each of dyes 23, 24, 25, 26, 31, and 39.
On the basis of performance to this point, the remaining dyes were considered substantially equivalent as tracer candidates. Acid violet 5 (number 39, Table 2) was chosen as a possible finalist candidate. Using this dye in a reaction mix at an absorbance of 10 (at its absorbance maximum of 527 nm) a PCR reaction was performed. […] This was considered unacceptable, but was overcome by further development efforts.
In general, the available dyes, as well as those investigated, are derived from unrelated applications. That is, many are used as fabric dyes, food colorings, biological stains etc. As such, they are available in various states of purity. In the case of the finalists, they all had purities of 80% or less, as determined by the product labels. In further experiments, PCR yields (determined by TCA precipitation) in reactions containing various concentrations of acid violet 5 (determined by A527) were compared before and after purification of the crude dye by reverse phase desalting. […] Since reversed phase desalting is not an attractive method for large scale dye purification, acid precipitation followed by ammonium hydroxide dissolution/evaporation to produce the ammonium dye was investigated. This procedure should result in an essentially salt free product. These procedures (reversed phase desalting and acid/ammonium hydroxide) were carried out for acid red 1 (No. 26, Table 2) and acid violet 5 (No. 39). […] The dyes were converted to their magnesium salts to further characterize the effect of counterion identity. This was accomplished by addition of magnesium chloride (excess) to a solution of the crude dye. The magnesium dye that immediately precipitated was recrystallized from water. […] In analogy with the magnesium salts, the calcium and zinc salts of acid red 1 were prepared to investigate whether the effect was divalent vs. monovalent cation or cation identity specific.

[3] = biological target: Taq polymerase (Thermus aquaticus, UniProt P19821); details: Hoppe et al., BioTechniques 12:679-680 (1992); cited from earlier work
Taq polymerase, sequence (P19821 whole entry): as above

O=S(=O)([O-])c1ccc2c(N=Nc3ccc(S(=O)(=O)[O-])c4ccccc34)c(O)c(S(=O)(=O)[O-])cc2c1.[Na+].[Na+].[Na+] [Dye 31, Amaranth]
effect of dye on restriction enzyme digests [1]: relatively inert

CC(=O)Nc1ccc(N=Nc2c(S(=O)(=O)[O-])cc3cc(S(=O)(=O)[O-])cc(NS(=O)(=O)c4ccc(C)cc4)c3c2O)cc1.[Na+].[Na+] [Dye 39, Acid Violet 5]
loss in PCR product yield ([2]; dye in reaction mix at absorbance of 10 at 527 nm, relative to same reaction without dye, FIG. 10): ≥ 50%

CC(=O)Nc1cc(S(=O)(=O)[O-])cc2cc(S(=O)(=O)[O-])c(N=Nc3ccccc3)c(O)c12.[Na+].[Na+] [acid red 1 Mg salt, acid red 1]
PCR toxicity of magnesium vs calcium and zinc salts ([2]; FIG. 12C): least toxic
PCR toxicity by counterion [2]: much less toxic to PCR than either the sodium or ammonium salts

CC(=O)Nc1cc(S(=O)(=O)[O-])cc2cc(S(=O)(=O)[O-])c(N=Nc3ccccc3)c(O)c12.[Na+].[Na+] [acid red 1 ammonium, acid red 1]
PCR toxicity by counterion [2]: more PCR toxic than the sodium

Cc1cc(C2(c3ccc(O)c(C)c3)OS(=O)(=O)c3ccccc32)ccc1O [cresol red]
compatibility with Taq [3]: compatible with Taq

OC[C@H]1O[C@@](CO)(O[C@H]2O[C@H](CO)[C@@H](O)[C@H](O)[C@H]2O)[C@@H](O)[C@@H]1O [sucrose]
compatibility with Taq [3]: compatible with Taq

O=C([O-])C1=NN(c2ccc(S(=O)(=O)[O-])cc2)C(=O)C1N=Nc1ccc(S(=O)(=O)[O-])cc1.[Na+].[Na+].[Na+] (centres unmarked) [tartrazine]
compatibility with Taq [3]: compatible with Taq

acid violet 5 [acid violet 5 Mg salt]
PCR toxicity by counterion [2]: much less toxic to PCR than either the sodium or ammonium salts

acid violet 5 [acid violet 5 ammonium]
PCR toxicity by counterion [2]: more PCR toxic than the sodium

acid violet 5 [acid violet 5 desalted]
susceptibility of PCR product yield to dye concentration ([2]; desalted relative to crude compound, FIG. 11): much less susceptible to dye concentration
